The values that follow come from publication PMC9870890 (Nature Communications, 2023).

The target of the assay is T1, M2R (Homo sapiens, UniProt P08172, M139L/M142L/M1T/M248L/M296L/M368L/M456T/M45L).
T1 construct: We used a full-length construct M2RFL△8 M for complexing with miniGαo and β-arrestin-1; FLAG (N); 8xHis (C); made in house; host or cells: Sf9 insect cells
T1 sequence (P08172 1-466 M1T/M45L/M139L/M142L/M248L/M296L/M368L/M456T): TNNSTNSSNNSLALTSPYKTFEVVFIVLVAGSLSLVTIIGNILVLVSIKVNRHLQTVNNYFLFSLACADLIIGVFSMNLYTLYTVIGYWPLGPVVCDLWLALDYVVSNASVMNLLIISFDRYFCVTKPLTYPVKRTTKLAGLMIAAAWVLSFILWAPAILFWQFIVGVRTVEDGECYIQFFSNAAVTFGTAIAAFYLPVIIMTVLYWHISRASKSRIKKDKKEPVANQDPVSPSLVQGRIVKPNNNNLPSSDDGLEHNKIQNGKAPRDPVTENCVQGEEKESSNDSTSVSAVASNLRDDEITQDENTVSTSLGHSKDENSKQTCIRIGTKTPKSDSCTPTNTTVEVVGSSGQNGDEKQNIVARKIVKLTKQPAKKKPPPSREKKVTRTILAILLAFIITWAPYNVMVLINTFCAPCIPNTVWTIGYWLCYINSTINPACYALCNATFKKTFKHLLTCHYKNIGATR
It is filed as biochemical. The settings on record: for Phosphorylation intensity: 100 μM Ixo or 1 mM carbachol. The method, then: We used a full-length construct M2RFL△8 M for complexing with miniGαo and β-arrestin-1. The receptor was purified as described above for cryo-EM sample. Excess GRK2 was mixed with the M2R in a buffer composed of 20 mM HEPES pH 7.5, 100 mM NaCl, 0.01% MNG, 0.003% CHS, 500 μM ATP in the presence and absence of 100 μM Ixo or 1 mM carbachol to initiate the phosphorylation at room temperature. The extent of phosphorylation at various time points (from 0 to 120 min) was evaluated by Pro-Q and Coomassie blue staining. The final phosphorylated receptor (Ixo-bound) was further evaluated by ion-exchange chromatography. The complex formation test was performed as follows: unphosphorylated Ixo-bound M2RFL△8 M or phosphorylated M2RFL△8 M was mixed with miniGαo or β-arrestin-1, respectively and incubated on ice for 30 min. The receptor alone or mixed complex sample were then analyzed by SEC against 20 mM HEPES pH 7.5, 100 mM NaCl, 0.01% MNG, 0.003% CHS in the presence of 10 μM Ixo.

Read-outs that look alike come from different tables or passages of the source.

In turn, `C[N+](C)(C)CC#CCOC1=NOCC1` [Ixo, iperoxo] displayed a Phosphorylation intensity (Time 5 min) of 4552.74; a Phosphorylation intensity (Time 10 min) of 10530.1; a Phosphorylation intensity (Time 15 min) of 15003.3; a Phosphorylation intensity (Time 30 min) of 17454.3; a Phosphorylation intensity (Time 60 min) of 18635.2; a Phosphorylation intensity (Time 120 min) of 18093.2. The “induction of GRK2-mediated phosphorylation of M2R” value (compared with carbachol) was “more efficient than carbachol”.
